In ChEMBL document CHEMBL4265965, “Dichloroacetophenones targeting at pyruvate dehydrogenase kinase 1 with improved selectivity and antiproliferative activity: Synthesis and structure-activity relationships” (Bioorg Med Chem Lett, 2018):
Calls of active or inactive are those of the source. The calls are words filed in the database; no cut-off is given here.

Experiments:
[1] = biological target: T1, [Pyruvate dehydrogenase (acetyl-transferring)] kinase isozyme 1, mitochondrial (Homo sapiens, UniProt Q15118); assay: Inhibition of PDK1 in human NCI-H1975 cells assessed as switch of pyruvate metabolism from lactate production to oxidative phosphorylation by measuring increase in ATP production at 5 uM incubated for 4 hrs followed by oligomycin addition for 1 hr measured for 16 mins; assay type: cell-based
T1 sequence (Q15118 whole entry): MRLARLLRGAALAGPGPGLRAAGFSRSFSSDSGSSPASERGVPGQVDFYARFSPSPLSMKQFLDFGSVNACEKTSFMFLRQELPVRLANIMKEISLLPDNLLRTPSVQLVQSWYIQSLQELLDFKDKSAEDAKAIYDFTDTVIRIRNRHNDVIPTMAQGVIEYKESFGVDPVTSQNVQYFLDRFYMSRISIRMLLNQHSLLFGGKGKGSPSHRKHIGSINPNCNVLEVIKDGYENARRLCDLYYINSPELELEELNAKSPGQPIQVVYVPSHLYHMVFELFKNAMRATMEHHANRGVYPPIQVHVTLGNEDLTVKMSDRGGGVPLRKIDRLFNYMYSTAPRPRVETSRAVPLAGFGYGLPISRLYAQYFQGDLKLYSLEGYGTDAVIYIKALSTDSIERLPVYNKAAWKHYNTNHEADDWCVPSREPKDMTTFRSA

[2] = biological target: T1, [Pyruvate dehydrogenase (acetyl-transferring)] kinase isozyme 1, mitochondrial; assay: Inhibition of PDK1 in human NCI-H1975 cells assessed as switch of pyruvate metabolism from lactate production to oxidative phosphorylation by measuring decrease in extracellular acidification rate at 10 uM pretreated for 4 hrs followed by glucose addition for 1 hr measured for 16 mins; assay type: cell-based
[3] = biological target: T1, [Pyruvate dehydrogenase (acetyl-transferring)] kinase isozyme 1, mitochondrial; assay: Inhibition of recombinant human N-terminal His6/Sumo-tagged PDK1 (29 to 436 residues) expressed in Escherichia coli BL21 at 1 uM by kinase-glo luminescence assay relative to control
[4] = biological target: T1, [Pyruvate dehydrogenase (acetyl-transferring)] kinase isozyme 1, mitochondrial; assay: Inhibition of PDK1 in human NCI-H1975 cells assessed as switch of pyruvate metabolism from lactate production to oxidative phosphorylation by measuring decrease in extracellular acidification rate at 10 uM pretreated for 4 hrs followed by 2DG addition for 1 hr measured for 16 mins; assay type: cell-based
A549 [5] = assay: Antiproliferative activity against human A549 cells assessed as inhibition of cell proliferation at 12 uM after 72 hrs by MTT assay relative to control; assay type: functional; conditions: A549, 72 h
NCI-H1975 [6] = assay: Antiproliferative activity against human NCI-H1975 cells assessed as inhibition of cell proliferation at 6 uM after 72 hrs by MTT assay relative to control; assay type: functional; conditions: NCI-H1975, 72 h
A549 [7] = assay: Antiproliferative activity against human A549 cells assessed as inhibition of cell proliferation at 6 uM after 72 hrs by MTT assay relative to control; assay type: functional; conditions: A549, 72 h
NCI-H1650 [8] = assay: Antiproliferative activity against human NCI-H1650 cells assessed as inhibition of cell proliferation at 6 uM after 72 hrs by MTT assay relative to control; assay type: functional; conditions: NCI-H1650, 72 h
[9] = biological target: Epidermal growth factor receptor (Homo sapiens, UniProt P00533); assay: Inhibition of EGFR phosphorylation in human NCI-H1975 cells at 10 uM after 24 hrs by Western blot analysis; assay type: cell-based; conditions: nci-h1975, 24 h
Chain of Epidermal growth factor receptor (P00533 whole entry): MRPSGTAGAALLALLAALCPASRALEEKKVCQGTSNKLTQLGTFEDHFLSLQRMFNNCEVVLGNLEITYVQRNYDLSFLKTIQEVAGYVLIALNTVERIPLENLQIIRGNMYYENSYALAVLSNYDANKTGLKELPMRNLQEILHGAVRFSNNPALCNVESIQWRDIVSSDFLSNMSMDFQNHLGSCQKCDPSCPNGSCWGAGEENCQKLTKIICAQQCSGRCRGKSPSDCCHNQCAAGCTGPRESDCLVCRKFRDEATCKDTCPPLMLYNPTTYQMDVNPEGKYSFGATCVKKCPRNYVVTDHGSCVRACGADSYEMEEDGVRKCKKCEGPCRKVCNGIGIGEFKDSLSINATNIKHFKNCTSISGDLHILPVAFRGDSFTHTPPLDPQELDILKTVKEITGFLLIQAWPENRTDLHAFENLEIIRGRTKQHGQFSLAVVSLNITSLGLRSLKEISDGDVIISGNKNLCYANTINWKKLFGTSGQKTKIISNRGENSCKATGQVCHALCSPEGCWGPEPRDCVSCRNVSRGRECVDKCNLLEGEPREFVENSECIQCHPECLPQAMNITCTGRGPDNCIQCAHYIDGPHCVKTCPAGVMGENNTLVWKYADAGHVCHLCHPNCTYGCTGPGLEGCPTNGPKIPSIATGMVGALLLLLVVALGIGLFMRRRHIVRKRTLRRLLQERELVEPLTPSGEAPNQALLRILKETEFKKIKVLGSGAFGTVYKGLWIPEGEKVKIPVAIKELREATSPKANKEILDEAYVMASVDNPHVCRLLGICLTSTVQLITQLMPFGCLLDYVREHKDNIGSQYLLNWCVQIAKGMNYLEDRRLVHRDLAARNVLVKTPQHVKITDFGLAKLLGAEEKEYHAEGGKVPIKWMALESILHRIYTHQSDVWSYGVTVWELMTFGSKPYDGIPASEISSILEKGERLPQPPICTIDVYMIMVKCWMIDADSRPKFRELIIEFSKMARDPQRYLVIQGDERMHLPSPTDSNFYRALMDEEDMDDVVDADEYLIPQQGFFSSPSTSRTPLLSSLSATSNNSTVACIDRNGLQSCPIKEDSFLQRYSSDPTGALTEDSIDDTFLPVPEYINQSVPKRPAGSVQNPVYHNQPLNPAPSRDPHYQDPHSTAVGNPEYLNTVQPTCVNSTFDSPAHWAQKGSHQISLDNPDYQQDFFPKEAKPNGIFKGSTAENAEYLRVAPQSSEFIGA

NCI-H1975 [10] = assay: Antiproliferative activity against human NCI-H1975 cells assessed as inhibition of cell proliferation at 2 uM after 72 hrs by MTT assay relative to control; assay type: functional; conditions: NCI-H1975, 72 h
[11] = Inhibition of ERK phosphorylation in human NCI-H1975 cells at 10 uM after 24 hrs by Western blot analysis; assay type: cell-based; conditions: nci-h1975, 24 h
[12] = biological target: T1, [Pyruvate dehydrogenase (acetyl-transferring)] kinase isozyme 1, mitochondrial; assay: Inhibition of PDK1 in human NCI-H1975 cells assessed as switch of pyruvate metabolism from lactate production to oxidative phosphorylation by measuring increase in basal oxygen consumption rate at 10 uM incubated for 4 hrs measured for 16 mins; assay type: cell-based
[13] = biological target: T1, [Pyruvate dehydrogenase (acetyl-transferring)] kinase isozyme 1, mitochondrial; assay: Inhibition of PDK1 in human NCI-H1975 cells assessed as switch of pyruvate metabolism from lactate production to oxidative phosphorylation by measuring increase in basal oxygen consumption rate at 10 uM incubated for 4 hrs followed by oligomycin addition for 1 hr measured for 16 mins; assay type: cell-based
[14] = biological target: T1, [Pyruvate dehydrogenase (acetyl-transferring)] kinase isozyme 1, mitochondrial; assay: Inhibition of PDK1 in human NCI-H1975 cells assessed as switch of pyruvate metabolism from lactate production to oxidative phosphorylation by measuring increase in proton leak at 5 uM incubated for 4 hrs followed by oligomycin addition for 1 hr measured for 16 mins; assay type: cell-based
[15] = biological target: T1, [Pyruvate dehydrogenase (acetyl-transferring)] kinase isozyme 1, mitochondrial; assay: Inhibition of PDK1 in human NCI-H1975 cells assessed as switch of pyruvate metabolism from lactate production to oxidative phosphorylation by measuring decrease in extracellular acidification rate at 10 uM pretreated for 4 hrs followed by oligomycin addition for 1 hr measured for 16 mins; assay type: cell-based
NCI-H1975 [16] = assay: Antiproliferative activity against human NCI-H1975 cells assessed as inhibition of cell proliferation after 72 hrs by MTT assay; assay type: functional, cell-based; conditions: NCI-H1975, 72 h
Sus scrofa = species on record: Sus scrofa; assay: Inhibition of porcine PDK1 assessed as activation of pyruvate dehydrogenase complex at 1 uM measured after 3 mins
NCI-H1650 [17] = assay: Antiproliferative activity against human NCI-H1650 cells assessed as inhibition of cell proliferation at 12 uM after 72 hrs by MTT assay relative to control; assay type: functional; conditions: NCI-H1650, 72 h
[18] = biological target: T1, [Pyruvate dehydrogenase (acetyl-transferring)] kinase isozyme 1, mitochondrial; assay: Inhibition of PDK1 in human NCI-H1975 cells assessed as switch of pyruvate metabolism from lactate production to oxidative phosphorylation by measuring increase in basal oxygen consumption rate at 10 uM incubated for 4 hrs followed by antimycinA addition for 1 hr measured for 16 mins; assay type: cell-based
[19] = biological target: RAC-alpha serine/threonine-protein kinase (Homo sapiens, UniProt P31749); assay: Inhibition of AKT phosphorylation in human NCI-H1975 cells at 10 uM after 24 hrs by Western blot analysis; assay type: cell-based; conditions: nci-h1975, 24 h
Chain of RAC-alpha serine/threonine-protein kinase (P31749 whole entry, the tested form may be a part): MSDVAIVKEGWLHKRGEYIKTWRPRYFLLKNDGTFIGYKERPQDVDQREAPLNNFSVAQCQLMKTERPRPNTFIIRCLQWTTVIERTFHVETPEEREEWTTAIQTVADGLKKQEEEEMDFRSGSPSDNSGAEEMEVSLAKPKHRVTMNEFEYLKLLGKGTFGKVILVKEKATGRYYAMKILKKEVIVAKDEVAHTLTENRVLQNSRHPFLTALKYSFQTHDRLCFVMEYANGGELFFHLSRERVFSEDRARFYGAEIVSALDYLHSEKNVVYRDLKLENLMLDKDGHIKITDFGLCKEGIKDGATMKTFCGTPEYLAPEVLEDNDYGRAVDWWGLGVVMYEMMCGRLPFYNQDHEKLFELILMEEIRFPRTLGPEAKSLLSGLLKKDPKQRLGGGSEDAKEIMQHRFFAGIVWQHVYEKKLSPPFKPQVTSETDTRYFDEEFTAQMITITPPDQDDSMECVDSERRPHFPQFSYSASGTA

[20] = biological target: T1, [Pyruvate dehydrogenase (acetyl-transferring)] kinase isozyme 1, mitochondrial; assay: Binding affinity to recombinant human N-terminal His6/Sumo-tagged PDK1 (29 to 436 residues) expressed in Escherichia coli BL21
[21] = biological target: T1, [Pyruvate dehydrogenase (acetyl-transferring)] kinase isozyme 1, mitochondrial; assay: Inhibition of PDK1 in human NCI-H1975 cells assessed as switch of pyruvate metabolism from lactate production to oxidative phosphorylation by measuring increase in maximum respiration at 5 uM incubated for 4 hrs followed by FCCP addition for 1 hr measured for 16 mins; assay type: cell-based
[22] = biological target: T1, [Pyruvate dehydrogenase (acetyl-transferring)] kinase isozyme 1, mitochondrial; assay: Inhibition of PDK1 in human NCI-H1975 cells assessed as switch of pyruvate metabolism from lactate production to oxidative phosphorylation by measuring increase in basal oxygen consumption rate at 10 uM incubated for 4 hrs followed by FCCP addition for 1 hr measured for 16 mins; assay type: cell-based
NCI-H1975 [23] = assay: Antiproliferative activity against human NCI-H1975 cells assessed as inhibition of cell proliferation at 12 uM after 72 hrs by MTT assay relative to control; assay type: functional; conditions: NCI-H1975, 72 h
NCI-H1650 [24] = assay: Antiproliferative activity against human NCI-H1650 cells assessed as inhibition of cell proliferation at 2 uM after 72 hrs by MTT assay relative to control; assay type: functional; conditions: NCI-H1650, 72 h
[25] = biological target: T1, [Pyruvate dehydrogenase (acetyl-transferring)] kinase isozyme 1, mitochondrial; assay: Inhibition of PDK1 in human NCI-H1975 cells assessed as switch of pyruvate metabolism from lactate production to oxidative phosphorylation by measuring increase in basal oxygen consumption rate at 2.5 to 5 uM incubated for 4 hrs measured for 16 mins; assay type: cell-based
A549 [26] = assay: Antiproliferative activity against human A549 cells assessed as inhibition of cell proliferation at 2 uM after 72 hrs by MTT assay relative to control; assay type: functional; conditions: A549, 72 h

## CC(C)Oc1ccc(C(=O)C(Cl)Cl)cc1[N+](=O)[O-]
[1]
  inhibition: Active
[2]
  inhibition: Active
[3]
  inhibition: 84.3%
[4]
  inhibition: Active
A549 [5]
  inhibition at 12 µM: 99.7%
NCI-H1975 [6]
  inhibition at 6 µM: 99.1%
A549 [7]
  inhibition at 6 µM: 92.5%
NCI-H1650 [8]
  inhibition at 6 µM: 95.9%
[9]
  inhibition (INH): Not Active
NCI-H1975 [10]
  inhibition at 2 µM: 65.5%
[11]
  inhibition (INH): Not Active
[12]
  inhibition: Active
[13]
  inhibition: Active
[14]
  inhibition: Active
[15]
  inhibition: Active
NCI-H1975 [16]
  IC50: 1260 nM
Sus scrofa
  inhibition: Active
NCI-H1650 [17]
  inhibition at 12 µM: 99.5%
[18]
  inhibition: inactive
[19]
  inhibition (INH): Not Active
[20]
  Kd: 580 nM
[21]
  inhibition: Active
[22]
  inhibition: Active
NCI-H1975 [23]
  inhibition at 12 µM: 99.5%
NCI-H1650 [24]
  inhibition at 2 µM: 48.6%
[25]
  inhibition: Active
A549 [26]
  inhibition at 2 µM: 27.7%
